Source: patent US10988440B2, “FTO inhibitors” (National Institute of Biological Sciences, Beijing, priority 2015, dated 2021)
Where two headings read alike, the source gives them in different places.

Experiments:
COMT enzyme [1] = target: T1, COMT enzyme (Homo sapiens, UniProt P21964); assay: COMT inhibition assay (reaction kinetic model, esculetin fluorescence); assay type: biochemical; details: for inhibition at 0.05 µM: read-out: COMT inhibition at 50 nM; for inhibition at 0.2 µM: read-out: COMT inhibition at 200 nM
T1 construct: COMT (μM); other: at 200 nM; other: at 50 nM; The reaction system contains 1U COMT enzyme, test article, 4 μM Esculetin, 0.6 mM AdoMet, 50 mM K3PO4, and 10 mM MgCl2
T1 sequence (P21964 1-271): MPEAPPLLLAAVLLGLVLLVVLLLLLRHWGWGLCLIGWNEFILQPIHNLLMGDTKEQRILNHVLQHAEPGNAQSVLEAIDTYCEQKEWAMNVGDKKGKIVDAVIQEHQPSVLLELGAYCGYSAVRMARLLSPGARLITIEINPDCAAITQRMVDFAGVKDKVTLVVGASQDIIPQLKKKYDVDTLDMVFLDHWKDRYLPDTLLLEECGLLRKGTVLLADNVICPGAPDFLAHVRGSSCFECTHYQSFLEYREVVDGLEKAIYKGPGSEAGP

COMT enzyme [2] = assay: as above; assay type: biochemical; details: normalized COMT/FTO value: (COMTcompound/FTOcompound)/(COMTentacapone/FTOentacapone)
FTO = FTO (Homo sapiens, UniProt Q9C0B1); assay: demethylation reaction catalyzed by FTO (enzymatic inhibition, HPLC-MS/MS of N6-mA and A); assay type: biochemical
Sequence of FTO (Q9C0B1 whole entry): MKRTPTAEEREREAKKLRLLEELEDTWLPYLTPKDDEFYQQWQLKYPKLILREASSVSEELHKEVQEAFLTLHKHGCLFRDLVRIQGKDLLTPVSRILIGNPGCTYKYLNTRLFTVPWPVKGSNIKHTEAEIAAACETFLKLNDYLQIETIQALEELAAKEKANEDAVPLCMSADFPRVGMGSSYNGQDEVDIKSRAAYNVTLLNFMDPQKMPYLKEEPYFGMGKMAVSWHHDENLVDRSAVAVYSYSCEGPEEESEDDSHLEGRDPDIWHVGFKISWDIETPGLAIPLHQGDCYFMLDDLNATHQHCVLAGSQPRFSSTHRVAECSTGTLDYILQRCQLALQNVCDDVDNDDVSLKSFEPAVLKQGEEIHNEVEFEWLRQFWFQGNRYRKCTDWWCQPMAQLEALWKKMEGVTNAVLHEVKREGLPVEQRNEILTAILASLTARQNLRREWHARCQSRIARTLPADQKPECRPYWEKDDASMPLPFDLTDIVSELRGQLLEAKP

[3] = Rat liver microsome stability assay; assay type: in vitro ADME; details: liver microsomes, pH 7.4, rat liver microsome 1 mg/ml, test compound 2 μM, NADPH 1 mM, 37° C.
[4] = exemplary IC50 data of representative compounds, read-out: Enzymatic inhibition (IC50)
[5] = selectivity table, read-out: FTO
[6] = read-out: Rat Liver Microsome CLint (μL/min/mg protein)
[7] = read-out: Rat Liver Microsome T½

SMILES	IC50 (COMT enzyme [1])	Selectivity Index* (COMT enzyme [2])	IC50 (FTO; [4])	IC50 (FTO; [5])	microsomal CLint at 2 μM [3, 6]	half-life at 2 μM [3, 7]	microsomal CLint at 1 h, 2 µM [3, 6]	half-life at 1 h, 2 µM [3, 7]	inhibition at 0.05 µM (COMT enzyme [1])	inhibition at 0.2 µM (COMT enzyme [1])
CCN(CC)C(=O)C(C#N)=C(NC)c1cc(O)c(O)c([N+](=O)[O-])c1 [Compound 347M, 2-cyano-3-(3,4-dihydroxy-5-nitrophenyl)-N,N-diethyl-3-(methylamino)acrylamide]	162 nM	8.10	~1000 nM	1000 nM	12.2 µL/min/mg	56.8 min	–	–	–	–
N#C/C(C(=O)Nc1nccs1)=C(/O)c1cc(O)c(O)c([N+](=O)[O-])c1 [Compound 374, 2-cyano-3-(3,4-dihydroxy-5-nitrophenyl)-3-oxo-N-(thiazol-2-yl)propanamide]	65 nM	6.50	< 1000 nM	500 nM	–	–	0.6 µL/min/mg	1160 min	–	–
N#C/C(=C\c1cc(O)c(O)c([N+](=O)[O-])c1)c1nccs1 [Compound 390]	–	–	~1000 nM	1000 nM	–	–	266 µL/min/mg	2.61 min	12%	36%
N#C/C(C(=O)N1CCCCC1)=C(/O)c1cc(O)c(O)c([N+](=O)[O-])c1 [Compound 661, (Z)-3-(3,4-dihydroxy-5-nitrophenyl)-3-hydroxy-2-(piperidine-1-carbonyl)acrylonitrile]	–	–	~1000 nM	1000 nM	–	–	2.2 µL/min/mg	315 min	12%	26%
N#C/C(=C\c1cc(O)c(O)c([N+](=O)[O-])c1)c1cnccn1 [Compound 396]	108 nM	21.60	< 1000 nM	250 nM	–	–	20.9 µL/min/mg	33.2 min	–	–
N#C/C(=C\c1cc(O)c(O)c([N+](=O)[O-])c1)c1ccncn1 [Compound 395, 3-(3,4-dihydroxy-5-nitrophenyl)-2-(pyrimidin-4-yl)acrylonitrile]	–	–	< 1000 nM	500 nM	–	–	12.6 µL/min/mg	55 min	36%	74%

Next, values leading:

IC50 (COMT enzyme [1])	Selectivity Index* (COMT enzyme [2])	IC50 (FTO; [4])	IC50 (FTO; [5])	microsomal CLint at 2 μM [3, 6]	half-life at 2 μM [3, 7]	microsomal CLint at 1 h, 2 µM [3, 6]	half-life at 1 h, 2 µM [3, 7]	inhibition at 0.05 µM (COMT enzyme [1])	inhibition at 0.2 µM (COMT enzyme [1])	SMILES
3560 nM	237.33	< 1000 nM	750 nM	–	–	–	–	–	–	N#C/C(C(=O)N1CCC1)=C(/O)c1cc(O)c(O)c([N+](=O)[O-])c1 [Compound 701, (Z)-2-(azetidine-1-carbonyl)-3-(3,4-dihydroxy-5-nitrophenyl)-3-hydroxyacrylonitrile]
105 nM	10.50	< 1000 nM	500 nM	–	–	2.9 µL/min/mg	239 min	–	–	N#C/C(=C(/O)c1cc(O)c(O)c([N+](=O)[O-])c1)c1cnccn1 [Compound 523, 3-(3,4-dihydroxy-5-nitrophenyl)-3-hydroxy-2-(pyrazin-2-yl)acrylonitrile]
24 nM	4.00	< 1000 nM	300 nM	–	–	1.6 µL/min/mg	433 min	–	–	N#C/C(=C\c1cc(O)c(O)c([N+](=O)[O-])c1)c1cnc(C(=O)O)cn1 [Compound 655, (Z)-5-(1-cyano-2-(3,4-dihydroxy-5-nitrophenyl)vinyl)pyrazine-2-carboxylic Acid]
214 nM	21.40	< 1000 nM	500 nM	–	–	4.9 µL/min/mg	141 min	–	–	CCN(CC)C(=O)/C(C#N)=C(\N)c1cc(O)c(O)c([N+](=O)[O-])c1 [Compound 347N]
